# Measurements as given in US11712438B2, “Phenyl derivatives as PGE2 receptor modulators” (IDORSIA PHARMACEUTICALS LTD, priority 2017, dated 2023).
# Legend:
# Assay in all cases: cell-based
# PTGER2 (EP2) = PTGER2 (EP2) (Homo sapiens, UniProt P43116)
# EP2 = EP2 (Homo sapiens, UniProt P43116);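 note: SF295 glioblastoma cells with endogenous EP2 only, PGE2-stimulated cAMP accumulation read by HTRF competitive immunoassay, 45 min pre-incubation then 30 min at room temperature, IBMX in buffer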
# Experimental: The antagonistic activities of the compounds of formula (I) on the EP2 and EP4 receptors are also determined in accordance with the following experimental method.
# Human tumor cell lines expressing endogenously either EP4 or EP2 are used and cAMP accumulation in cells upon PGE2 stimulation is monitored. SF295 glioblastoma cells express high endogenous EP2 and no EP4,whereas BT549 breast cancer cells, express high endogenous EP4 levels and very low EP2 levels.
# As a detection method for cAMP the HTRF (homogeneous time resolved fluorescence) Cisbio kit (HTRF cAMP dynamic 2 kit 20′000 tests Cisbio Cat. #62AM4PEC) was used, which is based on a competitive immunoassay using a Cryptate-labeled anti-cAMP antibody and d2-labeled cAMP. Native cAMP produced by cells or unlabeled cAMP (for the standard curve) compete with exogenously added d2-labeled cAMP (acceptor) for binding to monoclonal anti-cAMP-Eu3+ Cryptate (donor). A FRET signal (Fluorescence Resonance Energy Transfer) is obtained only if the labeled anti-cAMP antibody binds the d2 labelled cAMP, thus the specific signal (i.e. energy transfer) is inversely proportional to the concentration of cAMP in the standard or sample.
# The SF295 cells (NCI/No. 0503170) are detached from culture dishes with a cell dissociation buffer (Invitrogen, 13151-014), and collected in growing medium (GM: RPM11640 (Invitrogen 21875)/10% FCS, 1% Penicilin/streptomycin). Cells are counted washed and resuspended in assay buffer (AB; HBSS, 20 mM HEPES, 0.2% BSA; 2 mM IBMX). 4′000 cells in 5 μl of AB are seeded per well of a small volume 384 well plate (black with flat bottom, Greiner 784076).
# PGE2 (Cayman 14010, stock solution: 750 in DMSO) is used as agonist at 75 nM final concentration, corresponding to EC80.
# Two point five microliters of diluted compounds are transferred into the assay plate. Plate is pre-incubated 45 minutes at room temperature. Subsequently, 2.5 microliters of PGE2 (final conc. 75 nM) are transferred into the assay plate. Plate is incubated 30 minutes at room temperature.
# For each compound concentration the percentage of cAMP compared to DMSO control value as average±STDEV (each concentration is measured in duplicate) is calculated.
# EP4 = EP4 (Homo sapiens, UniProt P35408);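 note: inhibition of PGE2-evoked (6 nM) cAMP accumulation in BT549 breast cancer cells endogenously expressing EP4, cAMP read by HTRF competitive immunoassay after 30 min at room temperature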
# Sequence of EP4 (P35408 whole entry): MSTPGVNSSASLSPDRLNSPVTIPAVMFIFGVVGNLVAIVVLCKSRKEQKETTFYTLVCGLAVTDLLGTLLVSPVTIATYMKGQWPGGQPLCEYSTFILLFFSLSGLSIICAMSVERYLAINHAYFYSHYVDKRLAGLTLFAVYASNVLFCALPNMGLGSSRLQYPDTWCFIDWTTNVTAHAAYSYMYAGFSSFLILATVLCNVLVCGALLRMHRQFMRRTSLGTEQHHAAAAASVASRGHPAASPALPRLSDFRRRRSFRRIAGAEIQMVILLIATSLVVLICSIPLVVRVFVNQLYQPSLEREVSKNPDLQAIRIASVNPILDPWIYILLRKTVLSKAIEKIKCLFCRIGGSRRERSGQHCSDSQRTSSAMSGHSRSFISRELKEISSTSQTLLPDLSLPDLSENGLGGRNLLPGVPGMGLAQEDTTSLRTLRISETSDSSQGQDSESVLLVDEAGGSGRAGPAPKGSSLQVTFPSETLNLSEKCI
# PTRGER4 (EP4) = PTRGER4 (EP4) (Homo sapiens, UniProt P35408);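 note: assay plate preincubated 15 min at 37 °C, after which PGE2 was added at 20 nM final and incubation continued 120 min at 37 °C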
# Sequence of PTRGER4 (EP4) (P35408 whole entry): as above
# Sequence of PTGER2 (EP2) (P43116 whole entry): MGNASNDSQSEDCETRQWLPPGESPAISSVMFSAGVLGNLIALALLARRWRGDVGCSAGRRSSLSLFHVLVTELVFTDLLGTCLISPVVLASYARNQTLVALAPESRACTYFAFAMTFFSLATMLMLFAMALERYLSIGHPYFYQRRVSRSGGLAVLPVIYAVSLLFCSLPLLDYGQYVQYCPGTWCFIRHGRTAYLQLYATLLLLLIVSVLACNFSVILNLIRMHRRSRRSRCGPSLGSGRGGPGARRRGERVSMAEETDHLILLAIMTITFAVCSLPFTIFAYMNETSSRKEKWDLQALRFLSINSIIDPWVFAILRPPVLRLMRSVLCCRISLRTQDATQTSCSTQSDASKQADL
# Sequence of EP2 (P43116 whole entry): as above
SMILES,IC50 (PTGER2 (EP2)),IC50 (EP2),IC50 (EP4),IC50 (PTRGER4 (EP4))
"CCOc1cc(-c2cc(NCCc3c(OC)cc(Br)cc3OC)ncn2)sc1-c1noc(=O)[nH]1 [Example 88, 3-(5-{6-[2-(4-Bromo-2,6-dimethoxy-phenyl)-ethylamino]-pyrimidin-4-yl}-3-ethoxy-thiophen-2yl)-[1,2,4]oxadiazol-5(4H)-one]",9 nM,31 nM,6 nM,2 nM
"CCCOc1cc(Br)ccc1CCNc1cc(-c2cc(OCC)c(-c3noc(=O)[nH]3)s2)ncn1 [Example 89, 3-(5-{6-[2-(4-Bromo-2-propoxy-phenyl)-ethylamino]-pyrimidin-4-yl}-3-ethoxy-thiophen-2yl)-[1,2,4]oxadiazol-5(4H)-one]",17 nM,10 nM,58 nM,3 nM
"CCOc1cc(C(F)(F)F)ccc1CCNc1cc(-c2cc(OCC)c(-c3noc(=O)[nH]3)s2)ncn1 [Example 90, 3-(3-Ethoxy-5-{6-[2-(2-ethoxy-4-trifluoromethyl-phenyl)-ethylamino]-pyrimidin-4-yl}-thiophen-2yl)-[1,2,4]oxadiazol-5(4H)-one]",26 nM,24 nM,10 nM,3 nM
"CCOc1cc(-c2cc(NCCc3ccc(OC)cc3F)ncn2)sc1-c1noc(=O)[nH]1 [Example 92, 3-(3-Ethoxy-5-{6-[2-(2-fluoro-4-methoxy-phenyl)-ethylamino]-pyrimidin-4-yl}-thiophen-2yl)-[1,2,4]oxadiazol-5(4H)-one]",48 nM,68 nM,4 nM,4 nM
"CCOc1cc(F)ccc1CCNc1cc(-c2cc(OCC)c(-c3noc(=O)[nH]3)s2)ncn1 [Example 95, 3-(3-Ethoxy-5-{6-[2-(2-ethoxy-4-fluoro-phenyl)-ethylamino]-pyrimidin-4-yl}-thiophen-2-yl)-[1,2,4]oxadiazol-5(4H)-one]",30 nM,15 nM,166 nM,59 nM
CCOc1cc(-c2cc(NCCc3ccc(F)cc3C#N)ncn2)sc1-c1noc(=O)[nH]1 [Example 97],131 nM,144 nM,127 nM,95 nM
"CCOc1cc(-c2cc(NCCc3ccc(OC)cc3CC)ncn2)sc1-c1noc(=O)[nH]1 [Example 99, 3-(3-Ethoxy-5-{6-[2-(2-ethyl-4-methoxy-phenyl)-ethylamino]-pyrimidin-4-yl}-thiophen-2-yl)-[1,2,4]oxadiazol-5(4H)-one]",75 nM,80 nM,69 nM,45 nM
"CCOc1ccccc1CCNc1cc(-c2cc(OCC)c(-c3noc(=O)[nH]3)s2)ncn1 [Example 102, 3-(3-Ethoxy-5-{6-[2-(2-ethoxy-phenyl)-ethylamino]-pyrimidin-4-yl}-thiophen-2-yl)-[1,2,4]oxadiazol-5(4H)-one]",34 nM,17 nM,122 nM,91 nM
"CCOc1cc(-c2cc(NCCc3ccc(Br)c(Cl)c3)ncn2)sc1-c1noc(=O)[nH]1 [Example 106, 3-(5-{6-[2-(4-Bromo-3-chloro-phenyl)-ethylamino]-pyrimidin-4-yl}-3-ethoxy-thiophen-2-yl)-[1,2,4]oxadiazol-5(4H)-one]",35 nM,49 nM,10 nM,1 nM
"CCOc1cc(-c2cc(NCCc3cc(F)c(Br)cc3F)ncn2)sc1-c1noc(=O)[nH]1 [Example 107, 3-(5-{6-[2-(4-Bromo-2,5-difluoro-phenyl)-ethylamino]-pyrimidin-4-yl}-3-ethoxy-thiophen-2yl)-[1,2,4]oxadiazol-5(4H)-one]",10 nM,11 nM,7 nM,2 nM
"CCOc1cc(-c2cc(NCCc3ccc(Br)c(F)c3)ncn2)sc1-c1noc(=O)[nH]1 [Example 108, 3-(5-{6-[2-(4-Bromo-3-fluoro-phenyl)-ethylamino]-pyrimidin-4-yl}-3-ethoxy-thiophen-2-yl)-[1,2,4]oxadiazol-5(4H)-one]",28 nM,113 nM,15 nM,5 nM
"CCOc1cc(-c2cc(NCCc3cc(F)c(Br)cc3C)ncn2)sc1-c1noc(=O)[nH]1 [Example 111, 3-(5-{6-[2-(4-Bromo-5-fluoro-2-methyl-phenyl)-ethylamino]-pyrimidin-4-yl}-3-ethoxy-thiophen-2yl)-[1,2,4]oxadiazol-5(4H)-one]",31 nM,137 nM,26 nM,6 nM
"CCOc1cc(-c2cc(NCCc3ccc(Br)c(C)c3)ncn2)sc1-c1noc(=O)[nH]1 [Example 113, 3-(5-{6-[2-(4-Bromo-3-methyl-phenyl)-ethylamino]-pyrimidin-4-yl}-3-ethoxy-thiophen-2-yl)-[1,2,4]oxadiazol-5(4H)-one]",47 nM,113 nM,29 nM,3 nM
"CCOc1cc(-c2cc(NCCc3cc(C)c(Br)cc3F)ncn2)sc1-c1noc(=O)[nH]1 [Example 114, 3-(5-{6-[2-(4-Bromo-2-fluoro-5-methyl-phenyl)-ethylamino]-pyrimidin-4-yl}-3-ethoxy-thiophen-2yl)-[1,2,4]oxadiazol-5(4H)-one]",15 nM,27 nM,8 nM,3 nM
"CCOc1cc(-c2cc(NCCc3ccc(Br)c(OC)c3)ncn2)sc1-c1noc(=O)[nH]1 [Example 115, 3-(5-{6-[2-(4-Bromo-3-methoxy-phenyl)-ethylamino]-pyrimidin-4-yl}-3-ethoxy-thiophen-2yl)-[1,2,4]oxadiazol-5(4H)-one]",44 nM,51 nM,12 nM,16 nM
"CCOc1cc(-c2cc(NCCc3ccc(OC)cc3OC)ncn2)sc1-c1noc(=O)[nH]1 [Example 116, 3-(5-{6-[2-(2,4-Dimethoxy-phenyl)-ethylamino]-pyrimidin-4-yl}-3-ethoxy-thiophen-2-yl)-[1,2,4]oxadiazol-5(4H)-one]",10 nM,14 nM,8 nM,5 nM
"CCOc1cc(-c2cc(NCCc3ccc(OC)c(O)c3)ncn2)sc1-c1noc(=O)[nH]1 [Example 117, 3-(3-Ethoxy-5-{6-[2-(3-hydroxy-4-methoxy-phenyl)-ethylamino]-pyrimidin-4-yl}-thiophen-2yl)-[1,2,4]oxadiazol-5(4H)-one]",692 nM,244 nM,26 nM,16 nM
"CCOc1cc(-c2cc(NCCc3ccc(O)c(OC)c3)ncn2)sc1-c1noc(=O)[nH]1 [Example 118, 3-(3-Ethoxy-5-{6-[2-(4-hydroxy-3-methoxy-phenyl)-ethylamino]-pyrimidin-4-yl}-thiophen-2yl)-[1,2,4]oxadiazol-5(4H)-one]",488 nM,266 nM,148 nM,316 nM
"CCOc1cc(-c2cc(NCCc3cccc(OC)c3OC)ncn2)sc1-c1noc(=O)[nH]1 [Example 119, 3-(5-{6-[2-(2,3-Dimethoxy-phenyl)-ethylamino]-pyrimidin-4-yl}-3-ethoxy-thiophen-2-yl)-[1,2,4]oxadiazol-5(4H)-one]",10 nM,17 nM,11 nM,5 nM

# Second part, the compound after the results:
IC50 (PTGER2 (EP2)),IC50 (EP2),IC50 (EP4),IC50 (PTRGER4 (EP4)),SMILES
79 nM,82 nM,93 nM,90 nM,"CCOc1cc(-c2cc(NCCc3cc(Cl)ccc3Br)ncn2)sc1-c1noc(=O)[nH]1 [Example 94, 3-(5-{6-[2-(2-Bromo-5-chloro-phenyl)-ethylamino]-pyrimidin-4-yl}-3-ethoxy-thiophen-2-yl)-[1,2,4]oxadiazol-5(4H)-one]"
24 nM,58 nM,106 nM,43 nM,CCOc1cc(-c2cc(NCCc3ccc(Cl)cc3C#N)ncn2)sc1-c1noc(=O)[nH]1 [Example 96]
53 nM,83 nM,50 nM,14 nM,"CCOc1cc(-c2cc(NCCc3c(F)ccc(Cl)c3F)ncn2)sc1-c1noc(=O)[nH]1 [Example 98, 3-(5-{6-[2-(3-Chloro-2,6-difluoro-phenyl)-ethylamino]-pyrimidin-4-yl}-3-ethoxy-thiophen-2yl)-[1,2,4]oxadiazol-5(4H)-one]"
17 nM,50 nM,59 nM,27 nM,"CCOc1cc(-c2cc(NCCc3c(F)ccc(F)c3Cl)ncn2)sc1-c1noc(=O)[nH]1 [Example 100, 3-(5-{6-[2-(2-Chloro-3,6-difluoro-phenyl)-ethylamino]-pyrimidin-4-yl}-3-ethoxy-thiophen-2yl)-[1,2,4]oxadiazol-5(4H)-one]"
44 nM,62 nM,82 nM,103 nM,"CCOc1cc(-c2cc(NCCc3c(F)cc(F)cc3F)ncn2)sc1-c1noc(=O)[nH]1 [Example 101, 3-(3-Ethoxy-5-{6-[2-(2,4,6-trifluoro-phenyl)-ethylamino]-pyrimidin-4-yl}-thiophen-2-yl)-[1,2,4]oxadiazol-5(4H)-one]"
62 nM,39 nM,39 nM,36 nM,"CCOc1cc(-c2cc(NCCc3c(F)cccc3F)ncn2)sc1-c1noc(=O)[nH]1 [Example 103, 3-(5-{6-[2-(2,6-Difluoro-phenyl)-ethylamino]-pyrimidin-4-yl}-3-ethoxy-thiophen-2-yl)-[1,2,4]oxadiazol-5(4H)-one]"
11 nM,40 nM,25 nM,9 nM,"CCOc1cc(-c2cc(NCCc3c(F)cc(Cl)cc3F)ncn2)sc1-c1noc(=O)[nH]1 [Example 105, 3-(5-{6-[2-(4-Chloro-2,6-difluoro-phenyl)-ethylamino]-pyrimidin-4-yl}-3-ethoxy-thiophen-2yl)-[1,2,4]oxadiazol-5(4H)-one]"
6 nM,9 nM,3 nM,2 nM,"CCOc1cc(-c2cc(NCCc3c(F)cc(Br)cc3F)ncn2)sc1-c1noc(=O)[nH]1 [Example 110, 3-(5-{6-[2-(4-Bromo-2,6-difluoro-phenyl)-ethylamino]-pyrimidin-4-yl}-3-ethoxy-thiophen-2yl)-[1,2,4]oxadiazol-5(4H)-one]"
